Consider six compounds from ChEMBL document CHEMBL4342418, “1,2,3-Triazole-containing hybrids as potential anticancer agents: Current developments, action mechanisms and structure-activity relationships” (Eur J Med Chem, 2019).

Values after ≈ are worked out from the molar mass of the structure shown.

For assay [1], the system named is HepG2. Nature of the assay: Antiproliferative activity against human HepG2 cells by SRB assay. Type of assay: functional, cell-based.
Assay [2] concerns HeLa. Nature of the assay: Antiproliferative activity against human HeLa cells by SRB assay. Format: functional, cell-based. Background: Sulforhodamine B stains cellular protein and so reports cell mass.
For assay [3], the system named is MCF7. Nature of the assay: Antiproliferative activity against human MCF7 cells by SRB assay. Format: functional, cell-based.
The next assay has as its system MCF7-DOX. Kind of assay: Antiproliferative activity against human MCF7/Dox cells by SRB assay. Format: functional, cell-based.
In assay [4] the test system is HepG2. Kind of assay: Potency index, ratio of etoposide IC50 to test compound IC50 for antiproliferative activity against human HepG2 cells by SRB assay. Format: functional. As to conditions: pooled result: one value given for 7 cell lines, strains, targets or settings.
The subject of another assay is SK-OV-3. Nature of the assay: Antiproliferative activity against human SKOV3 cells by SRB assay. Type of assay: functional, cell-based.
Assay [5] has as its system A549. Nature of the assay: Antiproliferative activity against human A549 cells by SRB assay. Format: functional, cell-based.
Assay [6] has as its system DU-145. Nature of the assay: Antiproliferative activity against human DU145 cells by SRB assay. Type of assay: functional, cell-based.
Assay [7] has as its system MGC-803. Kind of assay: Antitumour activity against human MGC803 cells xenografted in BALB/c nude mice assessed as inhibition of tumour growth at 60 mg/kg, ig administered for 21 days relative to control. Format: functional. As to conditions: Mus musculus, MGC-803, po, 504 h; read-out: TGI. On the technique in general: A xenograft is tissue or cells of one species grown in another, often human tumour cells in immunodeficient mice.

In assay [8] the test system is MGC-803. Kind of assay: Antiproliferative activity against human MGC803 cells assessed as reduction in cell viability after 72 hrs by MTT assay. As to conditions: MGC-803, 72 h. Format: functional, cell-based. A general note: Tetrazolium dyes change colour on reduction, which living cells bring about.
The target of the next assay is Tubulin. Nature of the assay: Inhibition of tubulin polymerization (unknown origin). Format: protein-complex assay, Homo sapiens.
A further assay relates to BGC-823. Kind of assay: Antiproliferative activity against human BGC823 cells assessed as reduction in cell viability after 72 hrs by MTT assay. Format: functional, cell-based. As to conditions: BGC-823, 72 h.
Another assay concerns SGC-7901. Nature of the assay: Antiproliferative activity against human SGC7901 cells assessed as reduction in cell viability after 72 hrs by MTT assay. Format: functional, cell-based. As to conditions: SGC-7901, 72 h.
Assay [9] relates to MCF7. Kind of assay: cells. Type of assay: functional, cell-based. As to conditions: Homo sapiens.
Description: Antiproliferative activity against human MCF7 cells by MTT assay
The test system of the next assay is U-251. Nature of the assay: Antiproliferative activity against human U251 cells by MTT assay. Type of assay: functional, cell-based.
The subject of another assay is HCT-116. Nature of the assay: Antiproliferative activity against human HCT116 cells by MTT assay. Format: functional, cell-based.
For a further assay, the system named is SK-BR-3. Nature of the assay: Antiproliferative activity against human SKBR3 cells by MTT assay. Format: functional, cell-based.
A further assay has as its system K562. Nature of the assay: Antiproliferative activity against human K562 cells by MTT assay. Type of assay: functional, cell-based.
The next assay has as its system HFF. Nature of the assay: Antiproliferative activity against human HFF cells by MTT assay. Format: cell-based.
The next assay has as its system PC-3. Kind of assay: Antiproliferative activity against human PC3 cells by MTT assay. Type of assay: functional, cell-based.
The test system of assay [10] is A549. Nature of the assay: cells. As to conditions: Homo sapiens. Type of assay: functional, cell-based.
Description: Antiproliferative activity against human A549 cells by MTT assay
Assay [11] can be described thus: Antiproliferative activity against human SMCC7721 cells by MTT assay. Format: functional, cell-based.
The next assay deals with L02. Kind of assay: Antiproliferative activity against human HL7702 cells by MTT assay. Type of assay: cell-based.
A further assay relates to LNCaP. Nature of the assay: Antiproliferative activity against human LNCAP cells by MTT assay. Type of assay: functional, cell-based.
For the next assay, the system named is K562/Adr. Nature of the assay: Antiproliferative activity against human K562/ADR cells by MTT assay. Format: functional, cell-based.
The test system of assay [12] is MDA-MB-231. Kind of assay: Antiproliferative activity against human MDA-MB-231 cells assessed as reduction in cell viability after 72 hrs by MTT assay. Type of assay: functional, cell-based. As to conditions: MDA-MB-231, 72 h, read-out: IC50.
The subject of assay [13] is MDA-MB-468. Nature of the assay: Potency index, ratio of 5-fluorouracil IC50 to test compound IC50 for antiproliferative activity against human MDA-MB-468 cells. Format: functional.
The test system of assay [14] is MCF7. Kind of assay: Antiproliferative activity against human MCF7 cells assessed as reduction in cell viability after 72 hrs by MTT assay. Type of assay: functional, cell-based. As to conditions: MCF7, 72 h.
Assay [15] deals with MDA-MB-468. Nature of the assay: Antiproliferative activity against human MDA-MB-468 cells assessed as reduction in cell viability after 72 hrs by MTT assay. Format: functional, cell-based. As to conditions: MDA-MB-468, 72 h.
In assay [16] the test system is MDA-MB-231. Nature of the assay: Potency index, ratio of 5-fluorouracil IC50 to test compound IC50 for antiproliferative activity against human MDA-MB-231 cells. Type of assay: functional.
For assay [17], the system named is MCF7. Nature of the assay: Potency index, ratio of 5-fluorouracil IC50 to test compound IC50 for antiproliferative activity against human MCF7 cells. Type of assay: functional.
Assay [18] has as its system MCF7. Nature of the assay: Potency index, ratio of etoposide IC50 to test compound IC50 for antiproliferative activity against human MCF7 cells. Format: functional.
In assay [19] the test system is MCF7. Kind of assay: Potency index, ratio of cisplatin IC50 to test compound IC50 for antiproliferative activity against human MCF7 cells. Format: functional.
The subject of assay [20] is A549. Nature of the assay: Potency index, ratio of etoposide IC50 to test compound IC50 for antiproliferative activity against human A549 cells. Format: functional.
Assay [21] concerns A549. Kind of assay: Potency index, ratio of cisplatin IC50 to test compound IC50 for antiproliferative activity against human A549 cells. Format: functional.
A short description of assay [22]: Antiproliferative activity against human SMCC7721 cells assessed as reduction in cell viability after 48 hrs by MTT assay. Type of assay: functional, cell-based.
Assay [23] is described as follows: Potency index, ratio of cisplatin IC50 to test compound IC50 for antiproliferative activity against human […] cells. Format: functional.
Assay [24] concerns A549. Kind of assay: Antiproliferative activity against human A549 cells assessed as reduction in cell viability after 48 hrs by MTT assay. Type of assay: functional, cell-based. As to conditions: A549, 48 h.
The subject of a further assay is HL-60. Nature of the assay: Antiproliferative activity against human HL60 cells assessed as reduction in cell viability after 48 hrs by MTT assay. As to conditions: HL-60, 48 h. Format: functional, cell-based.
The test system of assay [25] is SW480. Nature of the assay: Potency index, ratio of etoposide IC50 to test compound IC50 for antiproliferative activity against human SW480 cells. Format: functional.
Assay [26] can be described thus: Potency index, ratio of etoposide IC50 to test compound IC50 for antiproliferative activity against human […] cells. Type of assay: functional.
In assay [27] the test system is SW480. Nature of the assay: Potency index, ratio of cisplatin IC50 to test compound IC50 for antiproliferative activity against human SW480 cells. Format: functional.
Assay [28] has as its system SW480. Nature of the assay: Antiproliferative activity against human SW480 cells assessed as reduction in cell viability after 48 hrs by MTT assay. Format: functional, cell-based. As to conditions: SW480, 48 h.
In assay [29] the test system is HepG2. Kind of assay: Potency index, ratio of podophyllotoxin IC50 to test compound IC50 for antiproliferative activity against human HepG2 cells. Format: functional.
Assay [30] deals with DU-145. Nature of the assay: Potency index, ratio of podophyllotoxin IC50 to test compound IC50 for antiproliferative activity against human DU145 cells. Type of assay: functional.
Assay [31] has as its system HeLa. Kind of assay: Potency index, ratio of podophyllotoxin IC50 to test compound IC50 for antiproliferative activity against human HeLa cells. Format: functional.
For a further assay, the system named is NIH3T3. Kind of assay: Antiproliferative activity against mouse NIH/3T3 cells by MTT assay. Format: functional, cell-based.
For assay [32], the system named is HepG2. Nature of the assay: Antiproliferative activity against human HepG2 cells by MTT assay. Format: functional, cell-based.
In assay [33] the test system is HeLa. Nature of the assay: Antiproliferative activity against human HeLa cells by MTT assay. Type of assay: functional, cell-based.
In assay [34] the test system is A549. Nature of the assay: Potency index, ratio of podophyllotoxin IC50 to test compound IC50 for antiproliferative activity against human A549 cells. Type of assay: functional.
Assay [35] has as its system MCF7. Nature of the assay: Potency index, ratio of podophyllotoxin IC50 to test compound IC50 for antiproliferative activity against human MCF7 cells. Format: functional.
Assay [36] relates to DU-145. Nature of the assay: Antiproliferative activity against human DU145 cells by MTT assay. Type of assay: functional, cell-based.

As to `CO/N=C1\C(=O)N(CCOCCn2cc(CN3C(=O)/C(=N\OC)c4ccccc43)nn2)c2ccccc21`, the IC50 with HepG2 [1], in the assay on HeLa [2], in the assay with MCF7 [3], in the assay on MCF7-DOX, in the assay on SK-OV-3 and in the assay on A549 [5] was 0.18 to 9.92 µM each time. This compound also came in with an IC50 in the assay on DU-145 [6] of 0.18 to 9.92 µM. Also, in the assay on HepG2 [4], the “Ratio IC50” value stood at 1.55.
As to `Cc1cc(=O)oc2cc(OCc3cn(-c4ccc(S(N)(=O)=O)cc4)nn3)ccc12`, the inhibition in vivo at 60 mg/kg with MGC-803 [7] worked out at 64.2%. In addition, the IC50 was 0.4 to 3.5 µg/mL (≈ 0.97 to 8.49 µM) in the assay on MGC-803 [8], 2.4 µM at Tubulin, 0.4 to 3.5 µg/mL (≈ 0.97 to 8.49 µM) with BGC-823 and 0.4 to 3.5 µg/mL (≈ 0.97 to 8.49 µM) with SGC-7901.
Consider `COC(=O)c1ccc(-c2cn(CC(=O)O[C@H]3c4cc5c(cc4[C@@H](c4cc(OC)c(OC)c(OC)c4)[C@H]4C(=O)OC[C@@H]43)OCO5)nn2)cc1`, for which the half-maximal inhibitory concentration (IC50) in the assay with MCF7 [9] was 21.1 to 124 µM; in the assay on U-251 it was 19.6 to 55.3 µM; in the assay with HCT-116, 19.6 to 55.3 µM; with SK-BR-3, 19.6 to 55.3 µM; in the assay on K562 it was 19.6 to 55.3 µM; with HFF, 195 µM. Further, the IC50 in the assay with PC-3 is 21.1 to 124 µM; in the assay on A549 [10], 21.1 to 124 µM; in [11], 19.6 to 55.3 µM; with L02 it was 565 µM; in the assay on LNCaP it was 19.6 to 55.3 µM; in the assay with K562/Adr, 19.6 to 55.3 µM.
On to `COc1cc(Cn2cc(CN3c4ccccc4Sc4ccccc43)nn2)cc(OC)c1OC`, for which the IC50 in the assay on MDA-MB-231 [12], with MCF7 [14] and in the assay on MDA-MB-468 [15] was 0.8 to 1.7 µM each time. Also, the “Ratio IC50” value with MDA-MB-468 [13], in the assay with MDA-MB-231 [16] and in the assay with MCF7 [17] was 6.2 - 15.8 each time.
As to `CCCC(=O)OC[C@H]1O[C@@H](OC(COCc2cn([C@H]3c4cc5c(cc4[C@@H](c4cc(OC)c(OC)c(OC)c4)[C@H]4C(=O)OC[C@@H]43)OCO5)nn2)COCc2cn([C@H]3c4cc5c(cc4[C@@H](c4cc(OC)c(OC)c(OC)c4)[C@H]4C(=O)OC[C@@H]43)OCO5)nn2)[C@H](OC(=O)CCC)[C@@H](OC(=O)CCC)[C@@H]1OC(=O)CCC` (some centres undefined), the “Ratio IC50” value (with MCF7 [18]; in the assay with MCF7 [19]; in the assay with A549 [20]; with A549 [21]; in assay [23]; with SW480 [25]) was 2.8 - 21.3 in each case. Besides, the “Ratio IC50” value (in [26]; in the assay on SW480 [27]) was 2.8 - 21.3 in each case. In addition, the concentration for half-maximal inhibition (IC50) (in assay [22]; with A549 [24]; with HL-60; in the assay with SW480 [28]) was 0.43 to 3.5 µM in each case.
Regarding `COc1cc([C@@H]2c3cc4c(cc3[C@H](NC(=O)c3cn(-c5ccc(Cl)cc5)nn3)[C@H]3COC(=O)[C@H]23)OCO4)cc(OC)c1OC`, the “Ratio IC50” value in the assay with HepG2 [29], with DU-145 [30], in the assay on HeLa [31], in the assay with A549 [34] and with MCF7 [35] was 3.8 - 8.5 in each case. The IC50 in the assay on MCF7 [9], in the assay on NIH3T3, with HepG2 [32], in the assay on HeLa [33], in the assay on A549 [10] and with DU-145 [36] was 0.7 to 1.21 µM in each case.

For orientation: IC50 means the concentration needed to halve the response being measured.
